The source of these data is paper PMC4846820, “A single active catalytic site is sufficient to promote transport in P-glycoprotein” (Scientific Reports, 2016).

The structures appear in SMILES notation. pKd: −log10 of the molar value. Where “and” joins values, the source holds several entries; their conditions need not be identical. Identical values can stand only once. Like-named read-outs stand apart in the source and are kept apart here.

Series [1] concerns the target T1, Wild-type Pgp (Homo sapiens, UniProt P08183). Description: VBL-BPY binding in permeabilized NIH 3T3 cells (confocal microscopy). The note with it: 5 mM AMP-PNP.
Procedure: Cells permeabilized by Staphylococcus alpha toxin (a) or Streptolysin O (b) were treated with different concentrations of CsA, ATP/Mg^2++ vanadate (Vi) or AMP-PNP/Mg^2+ followed by co-staining with VBL-BPY and 15D3-A647. The ratio of the VBL-BPY and 15D3-A647 fluorescence intensity was determined in pixels representing the plasma membrane, selected on the basis of 15D3-A647 fluorescence intensity exceeding the threshold of 300. Nucleotide-treated samples were compared to permeabilized ATP-depleted cells (0 mM nucleotide); the values are means ± SD of three independent experiments (***P < 0.001).
The target in series [2] is K433M Pgp (Homo sapiens, UniProt P08183, K433M). The series is described as follows: UIC2 mAb labeling of permeabilized cells: apparent affinity of nucleotide binding. The note with it: 37 °C, Mg2+.
Procedure: (§1) Permeabilized cells (1 × 10^6 ml^−1) were pre-incubated for 20 min with nucleotides added in a broad concentration range and then further incubated for 30 min with 10 μg/ml A647-conjugated UIC2 monoclonal antibody (all at 37 °C). UIC2 mAb binding to Pgp is a reversible reaction in the presence of ATP/Mg^2+ (Supplementary Fig. S6), thus, UIC2 was applied at a quasi-saturating concentration (5Kd;UIC2; Supplementary Fig. S5) and the duration of the incubation period was sufficient to reach equilibrium binding of UIC2 (Supplementary Fig. S6).
(§2) To prevent ATP hydrolysis, ATP was added to permeabilized cells without Mg^2+ in the presence of 5 mM EDTA. Alternatively, ATP was replaced by the non-hydrolysable ATP analogue AMP-PNP/Mg^2+, or the experiment was conducted on ice. […] Following antibody labeling, samples were washed 3 times with ice-cold PBS and centrifuged for 7 min at 635 g at 4 °C. The UIC2-A647 fluorescence intensity of the cells was measured by flow cytometry and plotted as a function of the nucleotide concentration.
Series [3] deals with K1076M Pgp (Homo sapiens, UniProt P08183, K1076M). The description is as above. The note with it: 37 °C, Mg2+.
Procedure: as §1, §2
Series [4] deals with T1, Wild-type Pgp. Description: UIC2 mAb labeling of permeabilized NIH 3T3 cells: apparent affinity of nucleotide binding.
Procedure: as §1, §2
Series [5] addresses T1, Wild-type Pgp. The series is described as follows: Nucleotide trapping kinetics (BeFx or Vi), UIC2-A647 labeling. The note with it: for accumulation in the trapped complex: both in WT and single Walker A mutant Pgp variants.
Procedure: The transition state of Pgp was stabilized by the addition of ATP/Mg^2+ and vanadate (Vi) or BeFx at 37 °C. Permeabilized cells were incubated with 100 μM (for WT) or 500 μM (for K433M and K1076M) ATP/Mg^2+ and 0.5 mM Vi[70] or BeFx (200 μM BeSO4 and 1 mM NaF) in the presence or absence of substrates in PBS at 37 °C. 500 μl aliquots were taken at regular intervals and washed twice with 5 ml ice-cold PBS containing Vi or BeFx at the same concentrations that were applied previously during incubation. […] The UIC2-A647 fluorescence intensity of the samples (F) was plotted as a function of time (t). The t1/2 values representing the half-life of the UIC2-reactive Pgp conformation were calculated from an exponential fit of the data points according to the following equation:
In series [6] the test system is single Walker A mutant Pgps (K433M and K1076M). The series is described as follows: UIC2 mAb labeling of permeabilized cells, single mutants taken together. The format is cell-based, human.
Procedure: as §1, §2
The test system of series [7] is single Walker A mutant Pgp (K433M, K1076M). Description: Vinblastine-bodipy staining and 15D3-A647 co-localization in MDCK cells. Format: cell-based, human. The note with it: 2 mM vanadate. How it is done: Cells were plated in 8-well Ibidi μ-Slide (Ibidi GmbH, Martinsried, Germany) two days before the experiments to obtain nearly confluent cultures. The samples were pre-incubated with the following agents: Na-azide (10 mM) and 2-deoxy D-glucose (8 mM), Vi (2 mM) or NEM (50 μM) for 30 min and then further incubated with 100 nM vinblastine-bodipy (VBL-BPY) and 30 μg/ml A647-conjugated 15D3 anti-Pgp antibody for another 30 min at 37 °C.
Cellular localization of Pgp and VBL-BPY staining was studied by a three-laser confocal laser scanning microscope (Olympus FluoView 1000 confocal microscope based on an inverted IX-81 stand with an UPlansAPo 60 × NA 1.35 oil immersion objective, Hamburg, Germany). […] Fluorescence intensities were detected in the spectral ranges of 500–530 nm, 555–655 nm and 655–755 nm, respectively. To assess the co-localization of VBL-BPY (green) and Alexa 647-conjugated 15D3 (red) fluorescence signals, single optical slices of apical membrane surfaces were recorded for double-labeled cells. The pattern and extent of co-localization in the sections were determined by using the cross-correlation scattergrams of the green and red pixels of the images. Co-localization indices were determined from 30–50 cells (in three independent experiments). […]

Series [8] deals with double Walker A mutant Pgp (Homo sapiens, UniProt P08183, K1076M/K433M). The note with it: apical membrane, MDCK cells, 100 nM VBL-BPY.
Procedure: The pattern and extent of co-localization in the sections were determined by using the cross-correlation scattergrams of the green and red pixels of the images. Co-localization indices were determined from 30–50 cells (in three independent experiments). The Pearson’s co-localization index (CI) provides a reliable estimate on the extent of fluorescence co-localization: CI values close to zero indicate no or a very low degree, while CI ≥ 0.5 reflects a high degree of co-localization, whereas the CI = 1 value would correspond to a full overlap between the two colours in each pixel of the image.
The target of series [9] is T1, Wild-type Pgp. The series is described as follows: Recovery from the Vi-trapped post-hydrolysis state (UIC2 labeling). Conditions: data not shown.
Series [10] relates to MDCK cells expressing single Walker A mutant Pgp. The series is described as follows: Cytotoxic effect of vinblastine, AlamarBlue assay. Format: cell-based, canine. The note with it: 72 h, single mutants. For orientation: Alamar Blue is a resazurin reagent that responds to reducing activity.
Procedure: cells/well. 24 hours later vinblastine was added at different concentrations and the plates were
further incubated for 72 h at 37 °C. The cell viability was determined using the AlamarBlue
assay (Serotec, UK) measuring the 530/590 nm fluorescence intensity of the dye in an
automated microplate reader (BioTec Synergy HT, US). The fluorescence intensities of the
samples were normalized to the fluorescence of the vinblastine untreated control sample, and
plotted as a function of vinblastine concentration. The data points are means of eight parallel
samples (±SD) from a representative experiment out of three.
For series [11], the target named is T1, Wild-type Pgp.
Procedure: Permeabilized cells trapped in the presence of ATP/Mg^2+ (100 μM for wild-type and 500 μM for single Walker A mutants) and 0.5 mM Vi were washed 3 times with ice-cold PBS and incubated in the presence or absence of ATP and/or substrates (verapamil, vinblastine) at 37 °C. 500 μl aliquots containing 2 × 10^5 cells were taken at regular intervals and washed twice with 5 ml PBS. […] At the end of incubations the samples were washed three times with ice-cold PBS and kept on ice until measurement in the flow cytometer.

T1 sequence (P08183 whole entry): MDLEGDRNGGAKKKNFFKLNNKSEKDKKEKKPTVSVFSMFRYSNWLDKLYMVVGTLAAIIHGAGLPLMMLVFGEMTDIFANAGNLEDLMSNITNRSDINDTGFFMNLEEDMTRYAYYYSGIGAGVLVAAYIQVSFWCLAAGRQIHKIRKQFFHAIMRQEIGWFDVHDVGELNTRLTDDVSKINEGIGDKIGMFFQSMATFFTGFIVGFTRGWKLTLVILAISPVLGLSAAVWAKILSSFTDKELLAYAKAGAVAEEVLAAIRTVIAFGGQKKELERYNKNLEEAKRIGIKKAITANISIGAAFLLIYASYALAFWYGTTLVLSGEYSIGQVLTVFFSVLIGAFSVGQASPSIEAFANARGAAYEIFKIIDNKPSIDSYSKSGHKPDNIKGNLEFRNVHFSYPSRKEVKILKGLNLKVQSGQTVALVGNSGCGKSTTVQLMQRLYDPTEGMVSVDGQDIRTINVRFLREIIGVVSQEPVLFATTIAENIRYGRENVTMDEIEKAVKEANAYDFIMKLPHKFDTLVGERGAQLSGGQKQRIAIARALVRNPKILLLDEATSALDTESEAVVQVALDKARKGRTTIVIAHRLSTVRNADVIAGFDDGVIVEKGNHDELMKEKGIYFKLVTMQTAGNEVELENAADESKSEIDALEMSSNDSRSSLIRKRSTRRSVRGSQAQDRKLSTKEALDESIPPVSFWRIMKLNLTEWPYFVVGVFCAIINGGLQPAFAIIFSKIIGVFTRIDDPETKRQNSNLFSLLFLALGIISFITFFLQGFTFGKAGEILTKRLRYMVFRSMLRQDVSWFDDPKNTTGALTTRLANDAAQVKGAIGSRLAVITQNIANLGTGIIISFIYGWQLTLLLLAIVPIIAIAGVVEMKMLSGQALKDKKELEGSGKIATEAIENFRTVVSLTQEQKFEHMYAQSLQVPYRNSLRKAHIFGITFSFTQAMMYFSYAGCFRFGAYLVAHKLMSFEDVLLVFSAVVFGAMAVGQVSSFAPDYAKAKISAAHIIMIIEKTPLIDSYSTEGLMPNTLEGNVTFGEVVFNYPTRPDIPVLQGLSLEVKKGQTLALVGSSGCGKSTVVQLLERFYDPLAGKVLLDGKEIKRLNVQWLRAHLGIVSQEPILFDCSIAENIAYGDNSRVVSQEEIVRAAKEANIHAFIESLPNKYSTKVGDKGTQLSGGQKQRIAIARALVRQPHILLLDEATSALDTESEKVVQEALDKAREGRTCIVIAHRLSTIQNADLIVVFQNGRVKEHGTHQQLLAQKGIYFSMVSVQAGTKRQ
K1076M Pgp, sequence (P08183 whole entry K1076M): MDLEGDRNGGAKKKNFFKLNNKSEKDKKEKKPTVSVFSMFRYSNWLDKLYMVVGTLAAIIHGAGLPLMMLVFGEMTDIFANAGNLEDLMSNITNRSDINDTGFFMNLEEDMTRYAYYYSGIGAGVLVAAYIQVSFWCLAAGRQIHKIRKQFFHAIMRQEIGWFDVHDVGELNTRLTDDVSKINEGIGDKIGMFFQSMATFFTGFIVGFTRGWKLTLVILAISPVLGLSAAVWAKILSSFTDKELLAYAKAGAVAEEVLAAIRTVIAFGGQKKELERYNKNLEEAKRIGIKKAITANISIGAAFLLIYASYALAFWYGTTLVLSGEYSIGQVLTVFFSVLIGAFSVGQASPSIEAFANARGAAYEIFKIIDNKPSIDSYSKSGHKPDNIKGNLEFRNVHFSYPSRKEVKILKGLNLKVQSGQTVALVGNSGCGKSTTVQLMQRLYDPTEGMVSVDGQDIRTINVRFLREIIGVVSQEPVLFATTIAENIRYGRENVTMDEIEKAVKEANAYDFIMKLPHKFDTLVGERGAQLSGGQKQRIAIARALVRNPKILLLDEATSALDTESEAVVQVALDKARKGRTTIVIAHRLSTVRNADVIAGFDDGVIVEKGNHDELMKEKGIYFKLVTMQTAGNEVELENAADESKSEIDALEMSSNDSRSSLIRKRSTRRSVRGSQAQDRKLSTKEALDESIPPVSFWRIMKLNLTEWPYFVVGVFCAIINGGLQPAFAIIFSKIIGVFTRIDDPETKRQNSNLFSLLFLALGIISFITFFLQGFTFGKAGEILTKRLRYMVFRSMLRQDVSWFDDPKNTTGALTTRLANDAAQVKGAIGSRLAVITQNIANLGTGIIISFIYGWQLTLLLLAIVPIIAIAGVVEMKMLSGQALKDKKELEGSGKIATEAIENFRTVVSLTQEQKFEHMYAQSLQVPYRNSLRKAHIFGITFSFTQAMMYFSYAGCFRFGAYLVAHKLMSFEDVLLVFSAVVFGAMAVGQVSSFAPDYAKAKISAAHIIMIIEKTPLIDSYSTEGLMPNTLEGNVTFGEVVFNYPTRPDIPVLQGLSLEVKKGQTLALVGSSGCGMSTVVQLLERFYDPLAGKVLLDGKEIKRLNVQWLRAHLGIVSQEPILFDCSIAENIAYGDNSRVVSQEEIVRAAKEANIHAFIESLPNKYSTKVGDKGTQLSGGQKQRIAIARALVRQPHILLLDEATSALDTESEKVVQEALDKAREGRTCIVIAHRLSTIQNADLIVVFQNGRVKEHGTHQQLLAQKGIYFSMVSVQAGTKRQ
K433M Pgp, sequence (P08183 whole entry K433M): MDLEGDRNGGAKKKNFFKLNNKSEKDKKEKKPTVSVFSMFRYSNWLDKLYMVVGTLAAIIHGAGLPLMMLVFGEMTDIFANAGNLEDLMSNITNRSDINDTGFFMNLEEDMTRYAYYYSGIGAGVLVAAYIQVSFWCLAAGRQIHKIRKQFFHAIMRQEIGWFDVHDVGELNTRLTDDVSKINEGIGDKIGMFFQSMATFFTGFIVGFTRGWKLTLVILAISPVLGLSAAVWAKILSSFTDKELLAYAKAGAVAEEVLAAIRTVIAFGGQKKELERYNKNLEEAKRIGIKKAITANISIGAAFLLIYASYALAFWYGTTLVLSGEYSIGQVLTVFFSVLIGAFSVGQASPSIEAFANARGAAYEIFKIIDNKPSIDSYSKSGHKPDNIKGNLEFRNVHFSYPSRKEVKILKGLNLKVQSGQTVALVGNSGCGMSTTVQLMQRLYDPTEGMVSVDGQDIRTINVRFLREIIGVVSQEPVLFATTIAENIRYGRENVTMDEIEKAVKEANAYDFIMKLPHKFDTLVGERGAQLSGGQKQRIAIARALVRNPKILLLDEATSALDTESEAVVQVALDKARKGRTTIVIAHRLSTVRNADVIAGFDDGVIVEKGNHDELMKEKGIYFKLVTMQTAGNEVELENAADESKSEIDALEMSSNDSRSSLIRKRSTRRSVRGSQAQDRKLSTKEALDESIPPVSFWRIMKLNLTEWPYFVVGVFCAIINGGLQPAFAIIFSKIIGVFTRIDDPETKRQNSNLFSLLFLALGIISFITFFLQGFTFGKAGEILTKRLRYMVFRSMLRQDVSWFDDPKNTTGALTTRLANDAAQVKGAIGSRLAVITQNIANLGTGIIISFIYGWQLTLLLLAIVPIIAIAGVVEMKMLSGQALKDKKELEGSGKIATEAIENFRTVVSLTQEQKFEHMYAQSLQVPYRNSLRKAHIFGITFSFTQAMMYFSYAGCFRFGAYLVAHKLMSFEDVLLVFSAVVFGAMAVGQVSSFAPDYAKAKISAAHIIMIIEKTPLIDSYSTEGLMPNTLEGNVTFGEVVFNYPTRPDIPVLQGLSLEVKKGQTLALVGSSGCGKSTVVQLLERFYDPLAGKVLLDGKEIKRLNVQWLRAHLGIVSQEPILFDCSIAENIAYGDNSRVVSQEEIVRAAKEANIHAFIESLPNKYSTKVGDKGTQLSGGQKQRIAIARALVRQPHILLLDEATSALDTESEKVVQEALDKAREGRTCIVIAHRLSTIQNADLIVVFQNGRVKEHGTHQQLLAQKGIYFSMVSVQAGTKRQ
double Walker A mutant Pgp, sequence (P08183 whole entry K433M/K1076M): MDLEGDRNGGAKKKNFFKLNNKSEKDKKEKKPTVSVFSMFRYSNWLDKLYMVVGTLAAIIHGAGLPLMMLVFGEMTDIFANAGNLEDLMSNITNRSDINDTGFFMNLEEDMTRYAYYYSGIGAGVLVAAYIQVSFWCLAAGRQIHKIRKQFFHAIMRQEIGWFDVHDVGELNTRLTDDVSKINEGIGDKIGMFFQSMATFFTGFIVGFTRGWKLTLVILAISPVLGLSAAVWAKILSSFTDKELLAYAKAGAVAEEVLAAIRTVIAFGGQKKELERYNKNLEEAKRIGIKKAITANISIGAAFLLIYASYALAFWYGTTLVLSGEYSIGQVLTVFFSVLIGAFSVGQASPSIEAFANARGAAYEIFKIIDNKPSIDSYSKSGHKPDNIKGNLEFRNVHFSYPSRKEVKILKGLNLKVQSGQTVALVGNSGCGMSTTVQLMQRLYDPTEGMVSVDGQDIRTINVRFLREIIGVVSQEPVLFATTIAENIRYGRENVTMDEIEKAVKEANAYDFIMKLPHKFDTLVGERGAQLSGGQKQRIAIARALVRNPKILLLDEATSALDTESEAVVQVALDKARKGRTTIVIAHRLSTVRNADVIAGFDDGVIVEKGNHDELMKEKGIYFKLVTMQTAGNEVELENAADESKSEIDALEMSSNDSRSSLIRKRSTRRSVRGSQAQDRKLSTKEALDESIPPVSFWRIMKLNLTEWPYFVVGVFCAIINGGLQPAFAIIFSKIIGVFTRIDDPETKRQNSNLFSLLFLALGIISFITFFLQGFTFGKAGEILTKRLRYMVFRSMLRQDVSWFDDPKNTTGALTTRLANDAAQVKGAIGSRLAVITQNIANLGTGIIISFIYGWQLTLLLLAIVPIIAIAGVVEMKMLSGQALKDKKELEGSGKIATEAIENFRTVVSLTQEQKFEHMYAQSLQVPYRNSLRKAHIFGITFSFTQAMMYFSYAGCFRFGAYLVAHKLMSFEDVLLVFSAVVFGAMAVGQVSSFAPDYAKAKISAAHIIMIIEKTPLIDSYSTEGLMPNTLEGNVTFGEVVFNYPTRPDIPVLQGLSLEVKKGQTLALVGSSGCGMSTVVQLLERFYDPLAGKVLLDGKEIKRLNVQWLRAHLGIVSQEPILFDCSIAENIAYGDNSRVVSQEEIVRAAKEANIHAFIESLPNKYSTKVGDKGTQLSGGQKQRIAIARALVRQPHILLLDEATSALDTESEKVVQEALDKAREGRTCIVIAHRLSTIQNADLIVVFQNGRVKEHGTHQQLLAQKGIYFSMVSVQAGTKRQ

Turning to `Nc1ncnc2c1ncn2[C@@H]1O[C@H](COP(=O)(O)OP(=O)(O)NP(=O)(O)O)[C@@H](O)[C@H]1O` [AMP-PNP], the “co-localization of VBL-BPY and Pgp” value in series [1] is recorded as “significant decrease”. Also, the Hill slope in [2] was 2.06 ± 0.29; in [3], 1.68 ± 0.23; in series [4] (37 °C, Mg2+), 1.75 ± 0.34. In addition, the “KA (apparent nucleotide affinity) for competing UIC2 labeling” value was determined as 3.40 ± 1.42 mM in series [2]; 3.01 ± 0.92 mM in [3]; 0.27 ± 0.14 mM in [4] (37 °C, Mg2+, 10 μg/ml UIC2).
On to `COC(=O)c1ccccc1-c1c2ccc(=N)cc-2oc2cc(N)ccc12` [rhodamine 123], for which the “accumulation in the trapped complex” value in [5] was “accelerated”.
Turning to `[O]=[V]([O-])([O-])[O-]` [Vi, orthovanadate], the “increase in the apparent affinity of the single mutants to ATP on addition of vanadate” value in series [6] (ATP/Mg2+, 37 °C) is on record as 5–10 fold. In [7], the “effect on VBL-BPY binding to single Walker A mutants” value is on record as “fully suppressed”. Besides, the “t1/2 of Vi trapping” value in series [5] (n = 6, Pgp variant not given) is 3.92 ± 0.87 min. Besides, the “effect of Vi on apparent affinity” value in series [4] (ATP hydrolysis prevented (Fig. 1b-d)) is “not influenced at all”. Moreover, in series [4] (hydrolysis conditions: 37 °C, ATP/Mg2+), the “effect of vanadate on apparent affinity” value is recorded as “increased the apparent affinity”.
Turning to `CCC1(O)CC2CN(CCc3c([nH]c4ccccc34)C(C(=O)OC)(c3cc4c(cc3OC)N(C)C3C(O)(C(=O)OC)C(OC(=O)CCC5=[N+]6C(=Cc7c(C)cc(C)n7[B-]6(F)F)C=C5)C5(CC)C=CCN6CCC43C65)C2)C1` (stereo not drawn) [VBL-BPY, BODIPY FL vinblastine], in series [8], the “Pearson's cross-correlation coefficient between VBL-BPY and 15D3 anti-Pgp antibody signals” value is reported as ~ 0.8.
In the case of `Nc1ncnc2c1ncn2[C@@H]1O[C@H](COP(=O)(O)OP(=O)(O)OP(=O)(O)O)[C@@H](O)[C@H]1O` [ATP], the “fraction of UIC2 label persisting in saturating ATP” value in [6] (10 μg/ml UIC2) is listed as ~ 50%. Moreover, the “KA (apparent affinity for competing UIC2 labeling)” value in [6] (at [UIC2] about 5Kd;UIC2) is around 2.5 mM. Also, the pKd in [6] (estimated with Eq. 7 of the kinetic model, read-out: Kd;ATP, dissociation constant of ATP from inward-facing Pgp) is around 2.30; in series [4] (read-out: Kd;ATP, dissociation constant of ATP from inward-facing Pgp, estimated with Eq. 7 of the kinetic model from KA and T2/T1;min), around 3.15. Moreover, the Km was around 700 µM in [6] (from Eq. 3 of the kinetic model, read-out: predicted KM for ATP-hydrolysis and substrate transport in the absence of UIC2); around 60 µM in [4] (read-out: predicted KM for ATP-hydrolysis and substrate transport in the absence of UIC2, from Eq. 3 of the kinetic model). Further, the “decrease in apparent affinity for ATP of the single mutants” value in series [6] (relative to WT) is recorded as ~ 10 fold. For the same compound, the “effect on release of the tightly bound nucleotide from the Vi-trapped complex” value in [9] is reported as “not influenced”. The Hill slope in series [2] was found to be 0.90 ± 0.32; in series [3] it was 0.89 ± 0.33; in series [4] (4 °C, Mg2+) it was 0.66 ± 0.17; in series [4] (37 °C, Mg2+), 0.77 ± 0.20; in series [4] (37 °C, no Mg2+), 1.60 ± 0.22. Also, the “KA (apparent nucleotide affinity) for competing UIC2 labeling” value was 2.08 ± 1.04 mM in series [2]; 2.03 ± 0.91 mM in series [3]; 2.70 ± 1.83 mM in series [4] (4 °C, Mg2+); 0.25 ± 0.16 mM and 0.25 mM in series [4] (37 °C, Mg2+, 10 μg/ml UIC2); 1.92 ± 0.33 mM in [4] (37 °C, no Mg2+).
`CC[C@]1(O)C[C@@H]2CN(CCc3c([nH]c4ccccc34)[C@@](C(=O)OC)(c3cc4c(cc3OC)N(C)[C@H]3[C@@](O)(C(=O)OC)[C@H](OC(C)=O)[C@]5(CC)C=CCN6CC[C@]43[C@@H]65)C2)C1` [vinblastine]: in series [10], the “resistance against the cytotoxic effect of vinblastine” value is “conferred resistance”. In addition, the “effect on release of the tightly bound nucleotide from the Vi-trapped complex” value in series [11] is reported as “not influenced”. In [5], the “accumulation in the trapped complex” value was “accelerated”. For the same compound, the “apparent affinity for ATP in the presence of substrate” value in series [5] (up to 200 μM vinblastine, BeFx, 20 min, 37 °C) is on record as “did not change”.

For orientation: Hill slope means a measure of the steepness of the concentration-response curve. In general, pKd refers to −log10 of the Kd, conventionally taken in molar units. Broadly, the Km is the substrate concentration at which the rate is half of its maximum.
